According to ChEMBL document CHEMBL4765420, “Design, synthesis and biological evaluation of novel HDAC inhibitors with improved pharmacokinetic profile in breast cancer” (Eur J Med Chem, 2020):
Calls of active or inactive are those of the source. The rule behind the calls is not given here.

Key:
[1] = tested on: MDA-MB-231; assay: Induction of apoptosis in human MDA-MB-231 cells assessed as increase in cleaved caspase-8 expression at 2.5 to 10 uM measured after 24 hrs by Western blot analysis; format: functional, cell-based; details: dose 2.5-10 µM
[2] = tested on: MDA-MB-231; assay: Induction of apoptosis in human MDA-MB-231 cells assessed as necrotic cells at 2.5 uM measured after 24 hrs by Annexin-V/propidium iodide staining based flow cytometry (reference value: 0.22 to 0.46%); format: functional
[3] = tested on: MDA-MB-231; assay: Induction of apoptosis in human MDA-MB-231 cells assessed as up regulation of Bax expression at 2.5 to 10 uM measured after 24 hrs by Western blot analysis; format: functional, cell-based; details: dose 2.5-10 µM
[4] = tested on: MDA-MB-231; assay: Induction of autophagy in human MDA-MB-231 cells assessed as increase in Beclin1 expression at 2.5 to 10 uM measured after 24 hrs by Western blot analysis; format: functional, cell-based; details: dose 2.5-10 µM
[5] = tested on: MDA-MB-231; assay: Inhibition of cell migration in human MDA-MB-231 cells assessed as decrease in MMP2 expression at 2.5 to 10 uM measured after 24 hrs Western blot analysis; format: functional, cell-based; details: dose 2.5-10 µM
[6] = molecular target: Histone deacetylase 9 (Homo sapiens, UniProt Q9UKV0); assay: Inhibition of recombinant human full-length N-terminal GST-tagged HDAC9 (1 to 1069 residues) expressed in wheat germ expression system using Ac-Leu-Gly-Lys(Tfa)-AMC as substrate measured after 30 mins by fluorescence assay
[7] = tested on: MDA-MB-231; assay: Induction of endoplasmic reticulum stress in human MDA-MB-231 cells assessed as increase in PERK expression at 2.5 to 10 uM measured after 24 hrs by Western blot analysis; format: functional, cell-based; details: dose 2.5-10 µM
[8] = tested on: MDA-MB-231; assay: Induction of apoptosis in human MDA-MB-231 cells assessed as early apoptotic cells at 10 uM measured after 24 hrs by Annexin-V/propidium iodide staining based flow cytometry (reference value: 0.69 to 0.92%); format: functional
[9] = tested on: MDA-MB-231; assay: Antiproliferative activity against human MDA-MB-231 cells measured after 48 hrs by MTT assay; format: functional, cell-based; details: MDA-MB-231, 48 h
[10] = tested on: MDA-MB-231; assay: Induction of apoptosis in human MDA-MB-231 cells assessed as necrotic cells at 5 uM measured after 24 hrs by Annexin-V/propidium iodide staining based flow cytometry (reference value: 0.22 to 0.46%); format: functional
[11] = tested on: MDA-MB-231; assay: Induction of apoptosis in human MDA-MB-231 cells measured after 24 hrs by Annexin-V/propidium iodide staining based flow cytometry; format: functional, cell-based
[12] = molecular target: T1, Histone deacetylase 11 (Homo sapiens, UniProt Q96DB2); assay: Inhibition of recombinant human N-terminal His-tagged HDAC11 expressed in baculovirus infected Sf9 insect cells using Ac-Arg-His-Lys(Ac)-Lys(Ac)-AMC as substrate measured after 30 mins by fluorescence assay
T1 sequence (Q96DB2 whole entry): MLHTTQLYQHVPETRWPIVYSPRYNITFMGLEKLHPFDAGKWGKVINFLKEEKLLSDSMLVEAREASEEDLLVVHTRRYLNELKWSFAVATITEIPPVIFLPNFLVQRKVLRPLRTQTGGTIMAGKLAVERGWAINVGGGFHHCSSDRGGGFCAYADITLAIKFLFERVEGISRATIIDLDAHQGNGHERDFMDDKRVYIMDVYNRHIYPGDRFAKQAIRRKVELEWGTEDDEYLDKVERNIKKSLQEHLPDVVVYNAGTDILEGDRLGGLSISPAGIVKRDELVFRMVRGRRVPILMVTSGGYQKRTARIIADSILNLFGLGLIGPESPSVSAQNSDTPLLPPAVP

[13] = tested on: MDA-MB-231; assay: Induction of apoptosis in human MDA-MB-231 cells assessed as early apoptotic cells at 2.5 uM measured after 24 hrs by Annexin-V/propidium iodide staining based flow cytometry (reference value: 0.69 to 0.92%); format: functional
[14] = tested on: MDA-MB-231; assay: Antiproliferative activity against human MDA-MB-231 cells measured after 96 hrs by MTT assay; format: functional, cell-based; details: MDA-MB-231, 96 h
[15] = tested on: MDA-MB-231; assay: Induction of apoptosis in human MDA-MB-231 cells assessed as viable cells at 5 uM measured after 24 hrs by Annexin-V/propidium iodide staining based flow cytometry (reference value: 95.68 to 98.38%); format: functional; details: read-out: Activity
[16] = molecular target: Histone deacetylase 2 (Homo sapiens, UniProt Q92769); assay: Inhibition of human full-length C-terminal FLAG-tagged HDAC2 expressed in baculovirus infected Sf9 insect cells using Ac-Leu-Gly-Lys(Ac)-AMC as substrate measured after 30 mins by fluorescence assay; format: cell-based
[17] = molecular target: T2, Histone deacetylase 7 (Homo sapiens, UniProt Q8WUI4); assay: Inhibition of HDAC7 (unknown origin) using AcLeu-Gly-Lys(Tfa)-AMC as substrate measured after 30 mins by fluorescence assay
T2 sequence (Q8WUI4 whole entry): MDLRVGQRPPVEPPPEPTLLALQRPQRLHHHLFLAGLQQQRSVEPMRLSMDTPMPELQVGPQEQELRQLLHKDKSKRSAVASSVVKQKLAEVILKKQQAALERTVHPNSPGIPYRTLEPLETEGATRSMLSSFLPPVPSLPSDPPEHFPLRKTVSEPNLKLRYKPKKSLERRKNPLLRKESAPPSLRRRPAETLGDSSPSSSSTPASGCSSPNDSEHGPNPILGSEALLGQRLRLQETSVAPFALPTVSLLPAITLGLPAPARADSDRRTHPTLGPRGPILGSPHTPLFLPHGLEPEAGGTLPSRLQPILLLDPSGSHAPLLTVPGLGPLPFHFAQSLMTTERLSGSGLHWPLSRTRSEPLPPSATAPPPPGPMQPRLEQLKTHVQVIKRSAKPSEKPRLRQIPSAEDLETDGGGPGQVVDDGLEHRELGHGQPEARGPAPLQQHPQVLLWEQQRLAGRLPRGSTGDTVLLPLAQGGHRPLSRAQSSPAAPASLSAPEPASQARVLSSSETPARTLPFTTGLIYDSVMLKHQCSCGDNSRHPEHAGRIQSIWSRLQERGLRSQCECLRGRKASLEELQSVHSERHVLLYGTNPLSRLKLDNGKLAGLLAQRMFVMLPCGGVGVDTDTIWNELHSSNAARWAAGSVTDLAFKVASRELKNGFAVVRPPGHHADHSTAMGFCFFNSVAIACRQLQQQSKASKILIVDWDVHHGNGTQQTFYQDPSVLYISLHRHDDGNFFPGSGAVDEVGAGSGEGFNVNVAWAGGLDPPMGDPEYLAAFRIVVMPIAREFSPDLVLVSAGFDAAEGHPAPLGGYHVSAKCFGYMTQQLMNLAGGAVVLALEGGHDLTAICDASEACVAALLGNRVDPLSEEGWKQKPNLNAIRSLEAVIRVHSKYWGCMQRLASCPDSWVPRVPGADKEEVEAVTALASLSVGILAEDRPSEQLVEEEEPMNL

[18] = tested on: MDA-MB-231; assay: Induction of apoptosis in human MDA-MB-231 cells assessed as late apoptotic cells at 5 uM measured after 24 hrs by Annexin-V/propidium iodide staining based flow cytometry (reference value: 0.71 to 2.94%); format: functional
[19] = tested on: MDA-MB-231; assay: Inhibition of cell migration in human MDA-MB-231 cells at 2.5 to 10 uM measured after 24 hrs using crystal violet staining by phase-contrast microscopy based transwell assay; format: functional; details: dose 2.5-10 µM
[20] = tested on: MDA-MB-231; assay: Inhibition of cell migration in human MDA-MB-231 cells assessed as increase in E-cadherin expression at 2.5 to 10 uM measured after 24 hrs Western blot analysis; format: functional, cell-based; details: dose 2.5-10 µM

Histone deacetylase 9, sequence (Q9UKV0 whole entry, the tested form may be a part): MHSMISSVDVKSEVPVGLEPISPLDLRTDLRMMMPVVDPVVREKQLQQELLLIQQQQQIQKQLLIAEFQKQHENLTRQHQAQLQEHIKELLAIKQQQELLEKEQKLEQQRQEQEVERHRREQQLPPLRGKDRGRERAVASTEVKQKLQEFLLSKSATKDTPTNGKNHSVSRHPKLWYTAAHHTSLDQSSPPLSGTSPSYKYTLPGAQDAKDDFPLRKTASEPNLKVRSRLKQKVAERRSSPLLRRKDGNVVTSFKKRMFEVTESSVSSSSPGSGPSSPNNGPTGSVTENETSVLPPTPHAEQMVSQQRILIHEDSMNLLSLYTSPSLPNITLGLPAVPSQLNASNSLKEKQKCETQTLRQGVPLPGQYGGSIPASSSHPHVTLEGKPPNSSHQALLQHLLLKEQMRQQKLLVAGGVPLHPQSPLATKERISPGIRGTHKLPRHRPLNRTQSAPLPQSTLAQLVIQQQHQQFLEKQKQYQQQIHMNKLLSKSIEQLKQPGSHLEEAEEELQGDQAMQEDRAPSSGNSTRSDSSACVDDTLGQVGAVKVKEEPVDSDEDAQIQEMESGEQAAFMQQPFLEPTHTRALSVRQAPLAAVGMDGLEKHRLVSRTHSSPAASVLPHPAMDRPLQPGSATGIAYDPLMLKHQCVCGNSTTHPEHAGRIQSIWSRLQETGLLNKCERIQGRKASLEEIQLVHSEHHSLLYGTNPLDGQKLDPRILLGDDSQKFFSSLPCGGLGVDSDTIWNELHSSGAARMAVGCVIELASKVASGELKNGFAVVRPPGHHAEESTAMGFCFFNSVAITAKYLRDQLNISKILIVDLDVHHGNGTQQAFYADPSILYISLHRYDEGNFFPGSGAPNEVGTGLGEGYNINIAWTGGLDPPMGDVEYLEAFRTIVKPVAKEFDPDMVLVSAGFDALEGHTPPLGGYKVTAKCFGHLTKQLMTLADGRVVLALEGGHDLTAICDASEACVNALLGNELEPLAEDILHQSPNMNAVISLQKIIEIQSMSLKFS
Histone deacetylase 2, sequence (Q92769 whole entry): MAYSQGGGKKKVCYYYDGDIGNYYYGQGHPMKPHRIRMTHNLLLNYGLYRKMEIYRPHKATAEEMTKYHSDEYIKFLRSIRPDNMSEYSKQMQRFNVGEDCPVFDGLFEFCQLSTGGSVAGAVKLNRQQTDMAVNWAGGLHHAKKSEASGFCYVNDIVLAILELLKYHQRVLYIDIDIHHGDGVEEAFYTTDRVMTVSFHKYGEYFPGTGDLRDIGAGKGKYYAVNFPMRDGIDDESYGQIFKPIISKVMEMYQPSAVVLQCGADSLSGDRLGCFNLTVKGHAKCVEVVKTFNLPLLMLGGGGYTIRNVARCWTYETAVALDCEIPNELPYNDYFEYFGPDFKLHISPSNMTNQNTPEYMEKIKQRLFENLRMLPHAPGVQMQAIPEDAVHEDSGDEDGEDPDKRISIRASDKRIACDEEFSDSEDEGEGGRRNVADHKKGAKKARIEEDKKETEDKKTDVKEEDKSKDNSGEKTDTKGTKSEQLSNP

Structure (SMILES): COc1cc(OC)c2c(N3CCS(=O)(=O)CC3)nc(-c3cc(C)c(OCCCCCC(=O)NO)c(C)c3)nc2c1
- Activity [1]: Active
- Activity [2]: 1.05%
- Activity [3]: Active
- Activity [4]: Active
- Activity [5]: Active
- IC50 [6]: > 1 µM
- Activity [7]: Active
- Activity [8]: 38.66%
- IC50 [9]: 1.52 µM
- Activity [10]: 0.41%
- Activity [11]: Dose-dependent effect
- IC50 [12]: > 1 µM
- Activity [13]: 11.77%
- IC50 [14]: 1.33 µM
- viability at 5 µM [15]: 71.5%
- IC50 [16]: 0.136 µM
- IC50 [17]: > 1 µM
- Activity [18]: 11.79%
- inhibition [19]: Active
- Activity [20]: Active
